The target of the assay is Human Factor D (Homo sapiens (Human), UniProt P00746). Description: Human Factor D Assay. The class given is biochemical. The essentials: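 First, compound at various concentrations is mixed with 80 nM (final) human serum Factor D in 50 mM Tris, 1M NaCl, pH 7.5 for 5 min at room temperature.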
Setting [1] is: Human Factor D 80 nM, substrate Z-L-Lys-SBzl, read-out: IC50.
[2] abbreviates: Table 3, Human Factor D 80 nM, substrate Z-L-Lys-SBzl, read-out: IC50 (Stars).
Setting [3] is: Human Factor D assay of Example 8, Table 2, read-out: IC50.
Setting [4] is: Human Factor D, Table 3, read-out: IC50.

SMILES strings stand for the structures. Where two headings read alike, the source gives them in different places.

Sequence of Human Factor D (P00746 26-253): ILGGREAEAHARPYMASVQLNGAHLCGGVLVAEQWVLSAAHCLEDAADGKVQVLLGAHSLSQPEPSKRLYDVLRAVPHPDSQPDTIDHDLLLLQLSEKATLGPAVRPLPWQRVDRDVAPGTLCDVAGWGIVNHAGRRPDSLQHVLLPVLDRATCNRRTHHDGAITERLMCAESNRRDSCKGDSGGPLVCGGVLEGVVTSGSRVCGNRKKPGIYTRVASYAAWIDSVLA

For the molecule `Cn1cnnc1-c1ccccc1NC(=O)[C@@H]1C[C@@H](F)CN1C(=O)Cn1nc(C(N)=O)c2cc(-c3ccnnc3)ccc21` [Compound 98, 1-(2-((2S,4R)-4-fluoro-2-(2-(4-methyl-4H-1,2,4-triazol-3-yl)phenylcarbamoyl)pyrrolidin-1-yl)-2-oxoethyl)-5-(pyridazin-4-yl)-1H-indazole-3-carboxamide], the IC50 (usually the point on the concentration scale where inhibition reaches its midpoint) under setting [1] is above 10000 nM.

On to `CNC(=O)[C@@H]1C[C@@H](F)CN1C(=O)Cn1nc(C(N)=O)c2cc(-c3ccnnc3)ccc21` [Compound 79, 1-(2-((2S,4R)-4-fluoro-2-(methylcarbamoyl)pyrrolidin-1-yl)-2-oxoethyl)-5-(pyridazin-4-yl)-1H-indazole-3-carboxamide], for which the IC50 under setting [1] was above 10000 nM. On to `CC(=O)c1nn(CC(=O)N2C[C@H](F)C[C@H]2C(=O)Nc2cccc(Cl)c2)c2ccc(-c3cnc(C)nc3)cc12` [Compound 508, (2S,4R)-1-(2-(3-Acetyl-5-(2-methylpyrimidin-5-yl)-1H-indazol-1-yl)acetyl)-N-(3-chlorophenyl)-4-fluoropyrrolidine-2-carboxamide], for which the IC50 under setting [2] was below 1000 nM. As for `CC(=O)c1nn(CC(=O)N2C[C@H](F)C[C@H]2C(=O)Nc2cccc(Br)n2)c2ccc(-c3cnc4cc(C)nn4c3)cc12` [Compound 243, (2S,4R)-1-(2-(3-acetyl-5-(2-methylpyrazolo[1,5-a]pyrimidin-6-yl)-1H-indazol-1-yl)acetyl)-N-(6-bromopyridin-2-yl)-4-fluoropyrrolidine-2-carboxamide], under setting [3], the IC50 was below 1000 nM. For `CC(=O)c1cn(CC(=O)N2C[C@H](F)C[C@H]2C(=O)Nc2c[nH]nc2-c2ccc(Cl)cc2Cl)c2ccc(-c3ccnnc3)cc12` [Compound 156, (2S,4R)-1-(2-(3-acetyl-5-(pyridazin-4-yl)-1H-indol-1-yl)acetyl)-N-(3-(2,4-dichlorophenyl)-1H-pyrazol-4-yl)-4-fluoropyrrolidine-2-carboxamide], under setting [1], the IC50 was above 10000 nM. With `CC(=O)c1nn(CC(=O)N2C[C@H](F)C[C@H]2C(=O)Nc2cccc(-c3ccccc3Cl)c2F)c2ccc(-c3cnc4cc(C)nn4c3)cc12` [Compound 296, (2S,4R)-1-(2-(3-acetyl-5-(2-methylpyrazolo[1,5-a]pyrimidin-6-yl)-1H-indazol-1-yl)acetyl)-N-(2′-chloro-2-fluorobiphenyl-3-yl)-4-fluoropyrrolidine-2-carboxamide], the 50% inhibitory concentration (IC50) under setting [3] is below 1000 nM. `NC(=O)c1nn(CC(=O)N2C[C@H](F)C[C@H]2C(=O)Nc2cccnc2Cl)c2ccc(-c3ccnnc3)cc12` [Compound 185, 1-(2-((2S,4R)-2-(2-chloropyridin-3-ylcarbamoyl)-4-fluoropyrrolidin-1-yl)-2-oxoethyl)-5-(pyridazin-4-yl)-1H-indazole-3-carboxamide] gave an IC50 of 1000 to 10000 nM.

Consider `CC(=O)c1nn(CC(=O)N2CCC[C@H]2C(=O)Nc2cccc(C)n2)c2ccc(-c3ccc4cccnc4c3)cc12` [Compound 589, (S)-1-(2-(3-Acetyl-5-(quinolin-7-yl)-1H-indazol-1-yl)acetyl)-N-(6-methylpyridin-2-yl)pyrrolidine-2-carboxamide], for which the IC50 under setting [4] was below 1000 nM. On to `CC(=O)c1nn(CC(=O)N2C[C@H](F)C[C@H]2C(=O)Nc2cc(C)cc(Br)n2)c2ccc(-c3cnc4cc(C)nn4c3)cc12` [Compound 332, (2S,4R)-1-(2-(3-acetyl-5-(2-methylpyrazolo[1,5-a]pyrimidin-6-yl)-1H-indazol-1-yl)acetyl)-N-(6-bromo-4-methylpyridin-2-yl)-4-fluoropyrrolidine-2-carboxamide], for which the IC50 under setting [3] was below 1000 nM. With `CC(=O)c1cn(CC(=O)N2C[C@H](F)C[C@H]2C(=O)N[C@H]2CCCC[C@@H]2OCc2ccccc2)c2ccc(-c3ccnnc3)cc12` [Compound 74, (2S,4R)-1-(2-(3-acetyl-5-(pyridazin-4-yl)-1H-indol-1-yl)acetyl)-N-((1S,2S)-2-(benzyloxy)cyclohexyl)-4-fluoropyrrolidine-2-carboxamide], under setting [1], the IC50 was above 10000 nM.

For `NC(=O)c1nn(CC(=O)N2[C@@H]3C[C@@H]3C[C@H]2C(=O)Nc2cccc(-c3ccccc3Cl)c2F)c2ccc(-c3ncccn3)cc12` [Compound 7, 1-(2-((1R,3S,5R)-3-(2′-chloro-2-fluorobiphenyl-3-ylcarbamoyl)-2-azabicyclo[3.1.0]hexan-2-yl)-2-oxoethyl)-5-(pyrimidin-2-yl)-1H-indazole-3-carboxamide], the IC50 under setting [1] is below 1000 nM.

Consider `CC(=O)c1nn(CC(=O)N2C[C@H](F)C[C@H]2C(=O)Nc2ccn(CC(F)F)n2)c2ccc(-c3cnc(C)nc3)cc12` [Compound 401, (2S,4R)-1-(2-(3-Acetyl-5-(2-methylpyrimidin-5-yl)-1H-indazol-1-yl)acetyl)-N-(1-(2,2-difluoroethyl)-1H-pyrazol-3-yl)-4-fluoropyrrolidine-2-carboxamide], for which the IC50 under setting [2] was below 1000 nM. Turning to `NC(=O)c1nn(CC(=O)N2C[C@H](F)C[C@H]2C(=O)Nc2c[nH]nc2-c2ccc(Cl)cc2Cl)c2ccc(-c3ccnnc3)cc12` [Compound 94, 1-(2-((2S,4R)-2-(3-(2,4-dichlorophenyl)-1H-pyrazol-4-ylcarbamoyl)-4-fluoropyrrolidin-1-yl)-2-oxoethyl)-5-(pyridazin-4-yl)-1H-indazole-3-carboxamide], the IC50 under setting [1] is above 10000 nM.

For the molecule `CC(=O)c1nn(CC(=O)N2C[C@H](F)C[C@H]2C(=O)Nc2cccc(Br)n2)c2ccc(-c3cnc(C)[n+]([O-])c3)cc12` [Compound 742, 5-(3-Acetyl-1-(2-((2S,4R)-2-((6-bromopyridin-2-yl)carbamoyl)-4-fluoropyrrolidin-1-yl)-2-oxoethyl)-1H-indazol-5-yl)-2-methylpyrimidine 1-oxide], the IC50 under setting [4] was below 1000 nM. On to `CC(=O)c1nn(CC(=O)N2C[C@H](F)C[C@H]2C(=O)Nc2cc(Cl)sc2C)c2ccc(-c3cnc(C)nc3)cc12` [Compound 229, (2S,4R)-1-(2-(3-acetyl-5-(2-methylpyrimidin-5-yl)-1H-indazol-1-yl)acetyl)-N-(5-chloro-2-methylthiophen-3-yl)-4-fluoropyrrolidine-2-carboxamide], for which, under setting [3], the IC50 is below 1000 nM. Turning to `CC(=O)c1nn(CC(=O)N2C[C@H](F)C[C@H]2C(=O)NCC23CC4CC(CC(C4)C2)C3)c2ccc(-c3cnc(C)nc3)cc12` [Compound 612, (2S,4R)-1-(2-(3-Acetyl-5-(2-methylpyrimidin-5-yl)-1H-indazol-1-yl)acetyl)-N-(((3S,5S,7S)-adamantan-1-yl)methyl)-4-fluoropyrrolidine-2-carboxamide], the IC50 under setting [4] is below 1000 nM. `CC(=O)c1nn(CC(=O)N2CC=C[C@H]2C(=O)Nc2cccc(Br)n2)c2ccc(-c3cnc(C)nc3)cc12` [Compound 294, (S)-1-(2-(3-acetyl-5-(2-methylpyrimidin-5-yl)-1H-indazol-1-yl)acetyl)-N-(6-bromopyridin-2-yl)-2,5-dihydro-1H-pyrrole-2-carboxamide]: under setting [3], the IC50 was below 1000 nM. For the molecule `Cc1cccc(NC(=O)[C@@H]2[C@H]3CC[C@H](C3)N2C(=O)Cn2cc(C(N)=O)c3cc(-c4cnc5ncccn45)ccc32)n1` [Compound 695, 5-(Imidazo[1,2-a]pyrimidin-3-yl)-1-(2-((1R,3S,4S)-3-(6-methylpyridin-2-ylcarbamoyl)-2-azabicyclo[2.2.1]heptan-2-yl)-2-oxoethyl)-1H-indole-3-carboxamide], the IC50 under setting [4] was above 10000 nM. Take `CC(=O)c1cn(CCN2C[C@H](F)C[C@H]2C(=O)Nc2cccc(OC(F)(F)F)c2F)c2ccc(-c3cnc(C)nc3)cc12` [Compound 594, (2S,4R)-1-(2-(3-Acetyl-5-(2-methylpyrimidin-5-yl)-1H-indol-1-yl)ethyl)-4-fluoro-N-(2-fluoro-3-(trifluoromethoxy)phenyl)pyrrolidine-2-carboxamide]: the IC50 under setting [4] is above 10000 nM.

On to `CC(=O)c1cn(CC(=O)N2C[C@H](F)C[C@H]2C(=O)Nc2ccc(CNC(=O)OCC3c4ccccc4-c4ccccc43)cc2)c2ccc(-c3ccnnc3)cc12` [Compound 61], for which the IC50 under setting [1] is above 10000 nM. With `CC(=O)c1nn(CC(=O)N2[C@H](C(=O)Nc3cccc(C(F)(F)F)n3)C[C@@]3(C)C[C@@H]23)c2ccc(-c3cnc(C)nc3)cc12` [Compound 631, (1R,3S,5R)-2-(2-(3-acetyl-5-(2-methylpyrimidin-5-yl)-1H-indazol-1-yl)acetyl)-5-methyl-N-(6-(trifluoromethyl)pyridin-2-yl)-2-azabicyclo[3.1.0] hexane-3-carboxamide], the IC50 under setting [4] was below 1000 nM. For the molecule `Cc1ncc(-c2ccc3c(c2)c(C(C)O)nn3CC(=O)N2C[C@H](F)C[C@H]2C(=O)Nc2cccc(Br)n2)cn1` (stereo partly drawn) [Compound 360, (2S,4R)-N-(6-bromopyridin-2-yl)-4-fluoro-1-(2-(3-(1-hydroxyethyl)-5-(2-methylpyrimidin-5-yl)-1H-indazol-1-yl)acetyl)pyrrolidine-2-carboxamide], the half-inhibitory concentration (IC50) is 1000 to 10000 nM. On to `CC(=O)c1nn(CC(=O)N2[C@@H]3C[C@@H]3C[C@H]2C(=O)Nc2cccc(OC(F)(F)F)c2F)c2ccc(-c3cnc4ccnn4c3)cc12` [Compound 239, (1R,3S,5R)-2-(2-(3-acetyl-5-(pyrazolo[1,5-a]pyrimidin-6-yl)-1H-indazol-1-yl)acetyl)-N-(2-fluoro-3-(trifluoromethoxy)phenyl)-2-azabicyclo[3.1.0] hexane-3-carboxamide], for which the IC50 under setting [3] is below 1000 nM. Take `CC(=O)c1cn(CC(=O)N2C[C@H](F)C[C@H]2C(=O)NCc2ccccc2)c2ccc(-c3cnc4cc(C)nn4c3)cc12` [Compound 685, (2S,4R)-1-(2-(3-Acetyl-5-(2-methylpyrazolo[1,5-a]pyrimidin-6-yl)-1H-indol-1-yl)acetyl)-N-benzyl-4-fluoropyrrolidine-2-carboxamide]: under setting [4], the IC50 was below 1000 nM. For the molecule `CC(=O)c1nn(CC(=O)N2C[C@H](F)C[C@H]2C(=O)Nc2nc(Br)c(F)cc2C)c2ccc(-c3cnc(C)nc3)cc12` [Compound 520, (2S,4R)-1-(2-(3-Acetyl-5-(2-methylpyrimidin-5-yl)-1H-indazol-1-yl)acetyl)-N-(6-bromo-5-fluoro-3-methylpyridin-2-yl)-4-fluoropyrrolidine-2-carboxamide], the IC50 under setting [2] was below 1000 nM.

Source of the values: US10287301B2 (Achillion Pharmaceuticals, Inc., priority 2015, dated 2019).
